From patent US20210293785A1, “METHODS FOR PREDICTING STEROID RESPONSIVENESS” (FLORIDA STATE UNIVERSITY RESEARCH FOUNDATION, INC., priority 2020, published 2021)

Test system: keloid fibroblasts
Experiment: Cell proliferation assay of patient-derived fibroblasts with or without steroid
Type: cell-based, human
Description: As depicted in the flow diagram of FIG. 3, in some embodiments, the method of the invention involves culturing small (˜2 mm) tissue pieces using standard cell culture media and conditions to allow the outgrowth of cells, which takes 1-2 weeks. Depending upon the desired cell type or cell types, non-invasive sampling methods can be utilized, such an oral rinse. The outgrown cells are collected by trypsinization and re-seeded in fresh wells. Upon attachment, the cells are treated in triplicate with or without 10 micromolar Triamcinolone Acetonide (TA), a potent synthetic steroid used widely in the clinic, or varying concentrations of any other test steroid. The viable cells are harvested 4-7 days post-treatment (when the untreated cells start approaching confluency) and counted to determine the effects of the steroid on cell proliferation. The inventors have tested the method of the invention using fibroblast cells derived from 3 normal human skin biopsies as well as 20 surgically excised keloids from patients and exposing them to TA, as well as hydrocortisone, another commonly used steroid in the clinic. The results were remarkably similar to those observed for the response of keloid patients to steroids in the clinic, with 52% of the samples being sensitive (responsive) to the TA treatment, while 39% were non-responsive and 9% were hyperproliferative in TA (which predicts a worsening of condition upon steroid therapy). In summary, our screening test described herein can be used to determine patients' responses to steroids in less than 4 weeks, following which responsive patients can undergo steroid therapy, while others can avoid the potentially harmful steroids altogether and seek other therapies. Culture of keloid derived primary fibroblast cells. Surgically excised keloid and normal skin explants were obtained from patients under Florida State University IRB (2016.19175 and 2017.22173). The explants were cut into small pieces, digested with trypsin, washed with and cultured in DMEM containing 10% fetal bovine serum and Antibiotic/Antimycotic solution maintained at 37° C. and 5% CO2. Outgrowth of only primary dermal fibroblasts occurred under our culture conditions and these were recovered by trypsinization for use in experiments at low passage. The keloid fibroblasts are morphologically identical to commercially obtained normal primary Human Dermal Fibroblasts (HDF) (Cell Applications, Cat.#106-05a) used in our controls. Cell proliferation assays. To determine relative cell survival following radiation or steroid treatments, 7,500 fibroblasts were seeded per well in triplicate in 12-well plates. Following attachment, the cells were treated with steroids or irradiated using a X-Rad 320 irradiator. Surviving fibroblasts were counted on a Coulter counter 7 days post-treatment.

[1] = fibroblasts from 3 normal human skin biopsies and 20 surgically excised keloids, 10 micromolar TA, cells counted 4-7 days post-treatment
[2] = keloid explants and fibroblasts, 10 μM TA for a week

CC1(C)O[C@@H]2C[C@H]3[C@@H]4CCC5=CC(=O)C=C[C@]5(C)[C@@]4(F)[C@@H](O)C[C@]3(C)[C@]2(C(=O)CO)O1 [TA, Triamcinolone Acetonide]
samples hyperproliferative in TA [1]: 9% | samples non-responsive to TA [1]: 39% | samples sensitive (responsive) to the TA treatment [1]: 52% | samples with hyperproliferation [2]: 10% | samples with modest reduction in proliferation (steroid sensitive) [2]: 50% | samples with no significant effects on proliferation (steroid insensitive) [2]: 40%
